Data from ChEMBL document CHEMBL4725427, “Synthesis and SAR Studies of 1H-Pyrrolo[2,3-b]pyridine-2-carboxamides as Phosphodiesterase 4B (PDE4B) Inhibitors” (ACS Med Chem Lett, 2020).

Columns and labels:
[1] = molecular target: 5-hydroxytryptamine receptor 2C (Homo sapiens) (UniProt P28335); experiment: Inhibition of 5HT2C (unknown origin) relative to control; conditions: concentration not given here
[2] = Metabolic stability in mouse liver microsomes assessed as intrinsic clearance; type: ADME, Microsome; conditions: read-out: CLH
[3] = Protein binding in human plasma assessed as unbound fraction; type: ADME, cell-free
[4] = molecular target: Muscarinic acetylcholine receptor M4 (Homo sapiens) (UniProt P08173); experiment: Inhibition of muscarinic M4 receptor (unknown origin) relative to control; conditions: concentration not given here
[5] = molecular target: Translocator protein TSPO (Homo sapiens) (UniProt P30536); experiment: Inhibition of PBR receptor (unknown origin) relative to control; conditions: concentration not given here
[6] = molecular target: 5-hydroxytryptamine receptor 5A (Homo sapiens) (UniProt P47898); experiment: Inhibition of 5HT5A (unknown origin) relative to control; conditions: concentration not given here
[7] = molecular target: 3',5'-cyclic-AMP phosphodiesterase 4C (Homo sapiens) (UniProt Q08493); experiment: Inhibition of recombinant human N-terminal GST-tagged PDE4C1 expressed in baculovirus infected Sf9 cells at 10 uM by radioligand assay relative to control
Chain of 3',5'-cyclic-AMP phosphodiesterase 4C (Homo sapiens) (Q08493 whole entry): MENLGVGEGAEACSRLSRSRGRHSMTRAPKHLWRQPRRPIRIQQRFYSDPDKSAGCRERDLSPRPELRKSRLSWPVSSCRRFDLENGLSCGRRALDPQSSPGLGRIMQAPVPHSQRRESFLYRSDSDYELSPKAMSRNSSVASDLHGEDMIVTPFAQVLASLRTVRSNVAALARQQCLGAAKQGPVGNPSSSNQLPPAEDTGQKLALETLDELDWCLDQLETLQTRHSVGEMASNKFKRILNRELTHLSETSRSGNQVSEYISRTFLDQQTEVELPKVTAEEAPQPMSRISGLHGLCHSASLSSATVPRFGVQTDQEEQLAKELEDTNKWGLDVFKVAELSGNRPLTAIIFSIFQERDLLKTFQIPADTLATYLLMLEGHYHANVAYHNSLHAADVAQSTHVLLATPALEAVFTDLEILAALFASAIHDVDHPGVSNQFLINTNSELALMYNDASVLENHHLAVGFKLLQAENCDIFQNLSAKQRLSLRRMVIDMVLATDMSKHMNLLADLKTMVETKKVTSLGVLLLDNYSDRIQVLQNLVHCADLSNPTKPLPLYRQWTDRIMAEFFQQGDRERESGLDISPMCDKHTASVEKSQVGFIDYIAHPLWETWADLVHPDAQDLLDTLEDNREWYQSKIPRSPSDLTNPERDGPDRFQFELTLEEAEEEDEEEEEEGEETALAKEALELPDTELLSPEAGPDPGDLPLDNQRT

[8] = molecular target: 5-hydroxytryptamine receptor 1D (Homo sapiens) (UniProt P28221); experiment: Inhibition of 5HT1D (unknown origin) relative to control; conditions: concentration not given here
[9] = molecular target: Dual specificity calcium/calmodulin-dependent 3',5'-cyclic nucleotide phosphodiesterase 1B (Homo sapiens) (UniProt Q01064); experiment: Inhibition of recombinant human N-terminal GST-tagged PDE1B expressed in baculovirus infected Sf9 cells at 10 uM by radioligand assay relative to control
[10] = molecular target: Alpha-1B adrenergic receptor (Homo sapiens) (UniProt P35368); experiment: Inhibition of adrenoceptor alpha 1B (unknown origin) relative to control; conditions: concentration not given here
Chain of Alpha-1B adrenergic receptor (Homo sapiens) (P35368 whole entry): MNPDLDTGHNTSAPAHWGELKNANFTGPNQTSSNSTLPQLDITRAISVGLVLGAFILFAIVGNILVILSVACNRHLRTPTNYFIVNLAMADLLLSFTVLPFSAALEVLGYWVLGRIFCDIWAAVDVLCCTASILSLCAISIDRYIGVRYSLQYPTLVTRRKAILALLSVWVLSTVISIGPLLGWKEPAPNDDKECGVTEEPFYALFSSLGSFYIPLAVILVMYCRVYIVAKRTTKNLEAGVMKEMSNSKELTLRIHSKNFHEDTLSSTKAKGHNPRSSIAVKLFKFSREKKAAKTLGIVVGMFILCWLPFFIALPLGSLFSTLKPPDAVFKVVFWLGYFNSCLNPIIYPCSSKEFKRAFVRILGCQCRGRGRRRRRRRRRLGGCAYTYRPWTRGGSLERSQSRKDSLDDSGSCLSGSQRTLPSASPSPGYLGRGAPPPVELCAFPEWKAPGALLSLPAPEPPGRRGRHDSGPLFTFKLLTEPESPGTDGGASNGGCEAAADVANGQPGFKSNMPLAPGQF

[11] = molecular target: D(1A) dopamine receptor (Homo sapiens) (UniProt P21728); experiment: Inhibition of D1 (unknown origin) relative to control; conditions: concentration not given here
[12] = molecular target: 3',5'-cyclic-AMP phosphodiesterase 7B (Homo sapiens) (UniProt Q9NP56); experiment: Inhibition of recombinant human N-terminal GST-tagged C-terminal His-tagged PDE7B (109 to end residues) expressed in baculovirus infected Sf9 cells at 10 uM by radioligand assay relative to control
[13] = molecular target: Alpha-1D adrenergic receptor (Homo sapiens) (UniProt P25100); experiment: Inhibition of adrenoceptor alpha 1D (unknown origin) relative to control; conditions: concentration not given here
[14] = molecular target: D(4) dopamine receptor (Homo sapiens) (UniProt P21917); experiment: Inhibition of D4 (unknown origin) relative to control; conditions: concentration not given here
Chain of D(4) dopamine receptor (Homo sapiens) (P21917 whole entry): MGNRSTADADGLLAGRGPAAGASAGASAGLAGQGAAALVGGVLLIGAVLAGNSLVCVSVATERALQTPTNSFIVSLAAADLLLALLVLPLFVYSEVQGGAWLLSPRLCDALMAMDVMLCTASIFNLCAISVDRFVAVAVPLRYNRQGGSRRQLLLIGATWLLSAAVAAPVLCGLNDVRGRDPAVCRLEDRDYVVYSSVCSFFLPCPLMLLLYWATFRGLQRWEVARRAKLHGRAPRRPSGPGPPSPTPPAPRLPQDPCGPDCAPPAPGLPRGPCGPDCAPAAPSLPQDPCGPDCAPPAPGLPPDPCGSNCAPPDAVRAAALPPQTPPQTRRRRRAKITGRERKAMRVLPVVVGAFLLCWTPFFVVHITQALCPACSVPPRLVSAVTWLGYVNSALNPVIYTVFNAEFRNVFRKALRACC

[15] = molecular target: Dual specificity calcium/calmodulin-dependent 3',5'-cyclic nucleotide phosphodiesterase 1C (Homo sapiens) (UniProt Q14123); experiment: Inhibition of recombinant human N-terminal GST-tagged PDE1C expressed in baculovirus infected Sf9 cells at 10 uM by radioligand assay relative to control
[16] = molecular target: Sigma non-opioid intracellular receptor 1 (Homo sapiens) (UniProt Q99720); experiment: Inhibition of sigma1 receptor (unknown origin) relative to control; conditions: concentration not given here
[17] = molecular target: Mu-type opioid receptor (Homo sapiens) (UniProt P35372); experiment: Inhibition of MOR (unknown origin) relative to control; conditions: concentration not given here
Chain of Mu-type opioid receptor (Homo sapiens) (P35372 whole entry): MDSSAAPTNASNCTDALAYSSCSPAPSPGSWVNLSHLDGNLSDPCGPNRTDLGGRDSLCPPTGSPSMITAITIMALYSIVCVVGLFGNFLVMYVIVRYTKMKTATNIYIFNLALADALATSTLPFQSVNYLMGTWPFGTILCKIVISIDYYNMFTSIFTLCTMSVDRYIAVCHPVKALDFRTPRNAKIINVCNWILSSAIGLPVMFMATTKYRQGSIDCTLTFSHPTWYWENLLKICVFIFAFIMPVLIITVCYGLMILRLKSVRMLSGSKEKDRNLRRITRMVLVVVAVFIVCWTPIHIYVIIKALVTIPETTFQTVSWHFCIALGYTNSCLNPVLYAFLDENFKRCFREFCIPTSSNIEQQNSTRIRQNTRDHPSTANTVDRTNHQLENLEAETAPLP

[18] = molecular target: Delta-type opioid receptor (Homo sapiens) (UniProt P41143); experiment: Inhibition of DOR receptor (unknown origin) relative to control; conditions: concentration not given here
[19] = molecular target: cGMP-inhibited 3',5'-cyclic phosphodiesterase 3A (Homo sapiens) (UniProt Q14432); experiment: Inhibition of recombinant human N-terminal His-tagged PDE3A (669 to 1141 end residues) expressed in baculovirus infected Sf9 cells at 10 uM by radioligand assay relative to control
[20] = molecular target: Kappa-type opioid receptor (Homo sapiens) (UniProt P41145); experiment: Inhibition of KOR (unknown origin) relative to control; conditions: concentration not given here
[21] = molecular target: Dual 3',5'-cyclic-AMP and -GMP phosphodiesterase 11A (Homo sapiens) (UniProt Q9HCR9); experiment: Inhibition of recombinant human N-terminal GST-tagged PDE11A4 expressed in baculovirus infected Sf9 cells at 10 uM by radioligand assay relative to control
Chain of Dual 3',5'-cyclic-AMP and -GMP phosphodiesterase 11A (Homo sapiens) (Q9HCR9 whole entry, looked up): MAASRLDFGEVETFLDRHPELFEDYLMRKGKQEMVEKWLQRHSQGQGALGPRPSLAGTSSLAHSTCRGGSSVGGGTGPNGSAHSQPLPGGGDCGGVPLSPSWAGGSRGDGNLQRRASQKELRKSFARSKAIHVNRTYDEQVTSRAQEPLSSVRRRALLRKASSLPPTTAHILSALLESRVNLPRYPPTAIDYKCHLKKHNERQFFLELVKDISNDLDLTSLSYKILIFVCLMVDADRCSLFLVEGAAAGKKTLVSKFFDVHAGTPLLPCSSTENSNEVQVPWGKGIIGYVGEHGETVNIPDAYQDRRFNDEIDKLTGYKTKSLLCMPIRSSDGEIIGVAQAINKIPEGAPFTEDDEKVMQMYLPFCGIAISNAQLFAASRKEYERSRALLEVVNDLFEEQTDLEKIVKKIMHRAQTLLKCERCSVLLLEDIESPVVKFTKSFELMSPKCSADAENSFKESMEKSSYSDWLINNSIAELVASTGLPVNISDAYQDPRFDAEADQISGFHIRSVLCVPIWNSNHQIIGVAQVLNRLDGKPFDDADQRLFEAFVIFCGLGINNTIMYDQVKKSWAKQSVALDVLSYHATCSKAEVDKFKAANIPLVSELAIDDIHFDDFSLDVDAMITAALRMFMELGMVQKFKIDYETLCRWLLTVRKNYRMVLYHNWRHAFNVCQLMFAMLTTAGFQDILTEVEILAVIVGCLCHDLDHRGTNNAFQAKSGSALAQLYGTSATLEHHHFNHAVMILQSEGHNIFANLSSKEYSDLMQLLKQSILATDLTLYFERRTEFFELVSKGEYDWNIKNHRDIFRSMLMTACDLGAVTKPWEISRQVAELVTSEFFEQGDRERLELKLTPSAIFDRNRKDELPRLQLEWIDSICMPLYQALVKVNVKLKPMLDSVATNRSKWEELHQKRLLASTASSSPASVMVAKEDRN

[22] = molecular target: 5-hydroxytryptamine receptor 1B (Homo sapiens) (UniProt P28222); experiment: Inhibition of 5HT1B (unknown origin) relative to control; conditions: concentration not given here
Chain of 5-hydroxytryptamine receptor 1B (Homo sapiens) (P28222 whole entry): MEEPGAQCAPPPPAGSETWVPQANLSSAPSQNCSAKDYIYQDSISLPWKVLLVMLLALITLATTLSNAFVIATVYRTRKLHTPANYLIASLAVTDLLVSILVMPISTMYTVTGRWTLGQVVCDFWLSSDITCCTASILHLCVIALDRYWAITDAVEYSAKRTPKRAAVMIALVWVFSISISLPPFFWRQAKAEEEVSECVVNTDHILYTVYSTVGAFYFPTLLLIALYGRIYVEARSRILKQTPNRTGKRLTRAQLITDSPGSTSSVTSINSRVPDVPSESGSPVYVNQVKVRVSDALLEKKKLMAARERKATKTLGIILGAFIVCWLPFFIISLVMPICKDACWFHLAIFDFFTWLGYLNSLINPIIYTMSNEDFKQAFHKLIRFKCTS

[23] = molecular target: 5-hydroxytryptamine receptor 6 (Homo sapiens) (UniProt P50406); experiment: Inhibition of 5HT6 (unknown origin) relative to control; conditions: concentration not given here
Chain of 5-hydroxytryptamine receptor 6 (Homo sapiens) (P50406 whole entry, the tested form may be a part): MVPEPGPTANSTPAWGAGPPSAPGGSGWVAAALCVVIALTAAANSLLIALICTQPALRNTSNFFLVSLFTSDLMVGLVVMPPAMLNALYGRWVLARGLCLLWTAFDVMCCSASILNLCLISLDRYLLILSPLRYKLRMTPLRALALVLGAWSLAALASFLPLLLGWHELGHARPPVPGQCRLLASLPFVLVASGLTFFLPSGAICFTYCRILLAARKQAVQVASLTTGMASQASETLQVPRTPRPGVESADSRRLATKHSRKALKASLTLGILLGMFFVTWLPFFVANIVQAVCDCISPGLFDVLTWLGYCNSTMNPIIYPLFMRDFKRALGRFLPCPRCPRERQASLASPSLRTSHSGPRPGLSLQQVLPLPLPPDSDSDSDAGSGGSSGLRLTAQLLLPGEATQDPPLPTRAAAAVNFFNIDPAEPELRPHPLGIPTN

[24] = molecular target: cAMP and cAMP-inhibited cGMP 3',5'-cyclic phosphodiesterase 10A (Homo sapiens) (UniProt Q9Y233); experiment: Inhibition of recombinant human N-terminal GST-tagged PDE10A1 (2 to 789 residues) expressed in baculovirus infected Sf9 cells at 10 uM by radioligand assay relative to control
[25] = molecular target: Histamine H1 receptor (Homo sapiens) (UniProt P35367); experiment: Inhibition of histamine H1 receptor (unknown origin) relative to control; conditions: concentration not given here
[26] = Protein binding in mouse plasma assessed as unbound fraction; type: ADME, cell-free
[27] = molecular target: Muscarinic acetylcholine receptor M1 (Homo sapiens) (UniProt P11229); experiment: Inhibition of muscarinic M1 receptor (unknown origin) relative to control; conditions: concentration not given here
[28] = Inhibition of recombinant human N-terminal GST-tagged PDE4A1A (1 to 647 residues) expressed in baculovirus infected Sf9 cells at 10 uM by radioligand assay relative to control
[29] = molecular target: 5-hydroxytryptamine receptor 2A (Homo sapiens) (UniProt P28223); experiment: Inhibition of 5HT2A (unknown origin) relative to control; conditions: concentration not given here
[30] = molecular target: High affinity cAMP-specific and IBMX-insensitive 3',5'-cyclic phosphodiesterase 8A (Homo sapiens) (UniProt O60658); experiment: Inhibition of recombinant human N-terminal GST-tagged PDE8A1 expressed in baculovirus infected Sf9 cells at 10 uM by radioligand assay relative to control
[31] = molecular target: D(1B) dopamine receptor (Homo sapiens) (UniProt P21918); experiment: Inhibition of D5 (unknown origin) relative to control; conditions: concentration not given here
[32] = molecular target: Alpha-2B adrenergic receptor (Homo sapiens) (UniProt P18089); experiment: Inhibition of adrenoceptor alpha 2B (unknown origin) relative to control; conditions: concentration not given here
[33] = molecular target: D(2) dopamine receptor (Homo sapiens) (UniProt P14416); experiment: Inhibition of D2 (unknown origin) relative to control; conditions: concentration not given here
[34] = molecular target: Alpha-2C adrenergic receptor (Homo sapiens) (UniProt P18825); experiment: Inhibition of adrenoceptor alpha 2C (unknown origin) relative to control; conditions: concentration not given here
Chain of Alpha-2C adrenergic receptor (Homo sapiens) (P18825 whole entry): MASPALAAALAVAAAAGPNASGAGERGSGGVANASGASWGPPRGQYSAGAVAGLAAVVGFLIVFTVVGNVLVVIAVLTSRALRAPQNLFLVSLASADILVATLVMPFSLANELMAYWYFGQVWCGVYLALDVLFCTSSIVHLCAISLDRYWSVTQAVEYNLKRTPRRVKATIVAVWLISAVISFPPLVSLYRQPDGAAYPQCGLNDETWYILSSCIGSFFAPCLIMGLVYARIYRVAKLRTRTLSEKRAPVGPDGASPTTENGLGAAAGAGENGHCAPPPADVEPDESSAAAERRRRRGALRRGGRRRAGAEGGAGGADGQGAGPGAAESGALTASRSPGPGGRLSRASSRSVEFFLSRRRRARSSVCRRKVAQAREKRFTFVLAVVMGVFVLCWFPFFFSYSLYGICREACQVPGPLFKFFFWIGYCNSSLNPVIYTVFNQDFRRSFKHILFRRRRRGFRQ

[35] = molecular target: 5-hydroxytryptamine receptor 1A (Homo sapiens) (UniProt P08908); experiment: Inhibition of 5HT1A (unknown origin) relative to control; conditions: concentration not given here
[36] = molecular target: Beta-2 adrenergic receptor (Homo sapiens) (UniProt P07550); experiment: Inhibition of adrenoceptor beta2 (unknown origin) relative to control; conditions: concentration not given here
[37] = molecular target: Sigma intracellular receptor 2 (Homo sapiens, UniProt Q5BJF2); experiment: Inhibition of sigma2 receptor (unknown origin) relative to control; conditions: concentration not given here
Chain of Sigma intracellular receptor 2 (Q5BJF2 whole entry): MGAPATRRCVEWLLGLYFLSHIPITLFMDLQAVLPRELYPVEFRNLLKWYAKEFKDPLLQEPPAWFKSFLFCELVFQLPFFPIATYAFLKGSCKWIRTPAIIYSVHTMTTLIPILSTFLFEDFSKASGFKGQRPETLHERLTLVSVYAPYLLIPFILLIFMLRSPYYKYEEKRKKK

[38] = molecular target: Alpha-1A adrenergic receptor (Homo sapiens) (UniProt P35348); experiment: Inhibition of adrenoceptor alpha 1A (unknown origin) relative to control; conditions: concentration not given here
[39] = molecular target: Cone cGMP-specific 3',5'-cyclic phosphodiesterase subunit alpha' (Homo sapiens) (UniProt P51160); experiment: Inhibition of recombinant human N-terminal GST-tagged PDE6C expressed in baculovirus infected Sf9 cells at 10 uM by radioligand assay relative to control

Chain of 5-hydroxytryptamine receptor 2C (Homo sapiens) (P28335 whole entry): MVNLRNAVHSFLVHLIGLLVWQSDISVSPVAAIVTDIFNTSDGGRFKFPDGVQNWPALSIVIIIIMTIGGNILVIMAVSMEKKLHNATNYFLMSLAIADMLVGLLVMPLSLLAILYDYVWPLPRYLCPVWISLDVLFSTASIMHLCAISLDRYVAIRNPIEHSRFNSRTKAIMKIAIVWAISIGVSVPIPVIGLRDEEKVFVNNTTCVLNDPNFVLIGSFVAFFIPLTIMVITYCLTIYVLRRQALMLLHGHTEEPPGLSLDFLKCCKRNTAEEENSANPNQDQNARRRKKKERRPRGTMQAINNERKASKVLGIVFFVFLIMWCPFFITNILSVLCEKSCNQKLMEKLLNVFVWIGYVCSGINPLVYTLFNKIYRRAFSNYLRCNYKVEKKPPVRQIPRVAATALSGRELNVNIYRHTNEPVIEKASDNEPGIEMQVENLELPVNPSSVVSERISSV

inhibition [1]: 59%
CLint scaled [2]: 100 mL/min/kg
fraction unbound [3]: 0.038
inhibition [4]: < 50%
inhibition [5]: < 50%
inhibition [6]: < 50%
inhibition [7]: < 50%
inhibition [8]: < 50%
inhibition [9]: < 50%
inhibition [10]: < 50%
inhibition [11]: < 50%
inhibition [12]: < 50%
inhibition [13]: < 50%
inhibition [14]: < 50%
inhibition [15]: < 50%
inhibition [16]: < 50%
inhibition [17]: < 50%
inhibition [18]: < 50%
inhibition [19]: < 50%
inhibition [20]: < 50%
inhibition [21]: < 50%
inhibition [22]: < 50%
inhibition [23]: < 50%
inhibition [24]: < 50%
inhibition [25]: < 50%
fraction unbound [26]: 0.027
inhibition [27]: < 50%
inhibition [29]: < 50%
inhibition [30]: < 50%
inhibition [31]: < 50%
inhibition [32]: < 50%
inhibition [33]: < 50%
inhibition [34]: < 50%
inhibition [35]: < 50%
inhibition [36]: < 50%
inhibition [37]: 70%
inhibition [38]: < 50%
inhibition [39]: < 50%
Compound: O=C(c1nc2cccnc2n1-c1ccc(Cl)c(Cl)c1)N1CC(F)(F)C1
inhibition [28]: < 50%
